In patent US20220169622A1, “AMPLIFICATION OF NUCLEIC ACIDS” (Abbott Molecular Inc., priority 2018, published 2022):
Entries after “also recorded” stand apart in the source; their conditions may differ.

Assays:
Type in all cases: biochemical
[1] = test system: non-specific amplification products; assay: RT-PCR without template, EVA Green monitoring of non-specific amplification products (Example 1); details: 0.0015, 0.005, 0.01% (w/w) MIT (0.015, 0.05, 0.1% (w/w) PROCLIN 950); no template; compared to reactions without MIT
Description: The primers and probes in the reaction mixtures target HIV-1 nucleic acids. The fluorescent DNA-intercalating dye, EVA Green, was included in each reaction to monitor the accumulation of non-specific amplification products. Realtime EVA Green fluorescence signals from RT-PCR reactions comprising […], 0.05. and 0.1% (w/w) PROCLIN 950 are shown in FIG. 1.

[2] = test system: non-specific amplification products; assay: RT-PCR without HIV-1 target RNA after master mix incubation at 2 to 8° C. for 16 hours, EVA Green (Example 2); details: 0.0015, 0.005, 0.01% (w/w) MIT; master mix incubated at 2 to 8° C. for 16 hours; no HIV-1 target RNA; compared to reactions without MIT
Method: During the development of embodiments of the technology provided herein, experiments were conducted to simulate the preparation of bulk RT-PCR reagents by a commercial manufacturing process. In particular, prototype HIV-1 assay master mixes comprising 0, 0.015, 0.05, and 0.1% (w/w) PROCLIN 950 (corresponding to 0, 0.0015, 0.005, and 0.01% (w/w) MIT concentrations, respectively) were incubated at 2 to 8° C. for 16 hours. RT-PCR was then performed with each master mix in the absence of HIV-1 target RNA (2 replicates per condition). The fluorescent DNA-intercalating dye. EVA Green was included in each reaction to monitor the accumulation of non-specific amplification products. Realtime EVA Green fluorescence signals from RT-PCR reactions comprising 0, 0.015, 0.05, and 0.1% (w/w) PROCLIN 950 are shown in FIG. 2.

HIV-1 target RNA = assay: Prototype HIV-1 assay RT-PCR with 50 copies of target RNA (Example 3); details: 0.015% (w/w) PROCLIN 950 (0.0015% (w/w) MIT); 50 copies of HIV-1 target RNA; compared to no PROCLIN 950
Method: During the development of embodiments of the technology provided herein, experiments were conducted to test RT-PCR in the presence of MIT in a prototype HIV-1 assay master mix. Prototype HIV-1 assay master mixes comprising 50 copies of HIV-1 target RNA and either 0.015% (w/w) PROCLIN 950 (0.0015% (w/w) MIT) or comprising no PROCLIN 950 were tested by RT-PCR (8 replicates each condition). HIV-specific realtime fluorescence signals from HIV-1 RT-PCR reactions comprising 0 or 0.015% (w/w) PROCLIN 950 are shown in FIG. 3.

Chlamydia trachomatis = assay: Prototype CT/NG assay RT-PCR with 0.1 inclusion forming units (Example 4); details: 0.015% (w/w) PROCLIN 950 (0.0015% (w/w) MIT); 0.1 inclusion forming units of Chlamydia trachomatis; compared to no PROCLIN 950
Method: During the development of embodiments of the technology provided herein, experiments were conducted to test RT-PCR in the presence of MIT in a prototype CT/NG assay master mix. Prototype CT/NG assay master mixes comprising 0.1 inclusion forming units of Chlamydia trachomatis and either 0.015% (w/w) PROCLIN 950 (0.0015% (w/w) MIT) or comprising no PROCLIN 950 were tested by RT-PCR (8 replicates each condition). CT-specific realtime fluorescence signals from CT/NG RT-PCR reactions comprising 0 or 0.015% (w/w) PROCLIN 950 (0.0015% (w/w) MIT) are shown in FIG. 4. […] Further, the prototype CT/NG assay uses different primer and probe sets than the prototype HIV-1 assay described in Example 3.

SMILES: Cn1sccc1=O [MIT, 2-methyl-4-isothiazolin-3-one]
- non-specific product formation (EVA Green signal) [1]: reduces the accumulation of non-specific product; also recorded: decreased levels of non-specific product formation
- non-specific product formation (EVA Green signal) [2]: reduces the accumulation of non-specific product during prolonged storage; also recorded: decreased levels of non-specific product formation
- HIV-specific realtime fluorescence signal (RT-PCR performance) (HIV-1 target RNA): enhances RT-PCR performance
- CT-specific realtime fluorescence signal (RT-PCR performance) (Chlamydia trachomatis): enhances RT-PCR performance
